Measurements: PMC4581254, “Identification of Hydroxyanthraquinones as Novel Inhibitors of Hepatitis C Virus NS3 Helicase” (International Journal of Molecular Sciences, 2015)
Where a name gives a salt, the structure may show the parent alone. Read-outs that look alike come from different tables or passages of the source.

Columns and labels:
[1] = molecular target: T1, HCV NS3 helicase (Hepatitis C virus genotype 1b, UniProt P26662); test: FRET-based fluorescence helicase assay (dsRNA unwinding); type: biochemical
T1 construct: The full-length HCV NS3 protein, with serine protease and NTPase/helicase activities; made in house
Procedure: A fluorescence helicase assay based on FRET [26, 27], with modifications in the fluorescent dyes, was used to examine NS3 helicase inhibition by different compounds. […] The concentration of the capture strand was optimized to 400 nM based on the Z′ value; the Z′ value validates assay conditions as having reliability and reproducibility when its value is close to 1.
The FRET-based fluorescence helicase assay was performed as described previously, with modifications in the fluorescent dyes used. The dsRNA substrate was prepared by annealing the 5′ Alexa Fluor 700-labeled fluorescence strand to the 3′ BHQ3-labeled quencher strand in a 1:2 molar ratio. The dsRNA substrate contained the 3′-overhang that is necessary for the NS3 helicase to bind to it prior to duplex unwinding. The capture strand had sequence complementary to the quencher strand and prevented the unwound duplexes from reannealing. All the nucleic acid strands had the same nucleic acid sequences as described previously and were purchased from Japan Bio Services (Saitama, Japan). The reaction mixture contained 25 mM MOPS-NaOH (pH 6.5), 3 mM MgCl2, 2 mM dithiothreitol, 4 U RNasin (Promega, Madison, WI, USA), 50 nM dsRNA substrate, 400 nM capture strand, 5 mM ATP, a serial dilution of test compounds in DMSO vehicle, and 240 nM NS3 helicase in a total reaction volume of 20 µL. The full-length HCV NS3 protein, with serine protease and NTPase/helicase activities, was expressed and purified as described previously.
The reaction was started by the addition of HCV NS3 helicase and was performed at 37 °C for 30 min in a SpectraMax Gemini XS microplate reader (Molecular Devices, Sunnyvale, CA, USA). The fluorescence intensity was recorded every 20 s for 30 min. Helicase activity was calculated as the initial reaction velocity relative to that of the control (in the absence of a test compound but presence of DMSO vehicle). The IC50 was calculated using KaleidaGraph (Synergy Software, Reading, PA, USA) by fitting plots of % activity vs. [I] using Equation (1) unless otherwise stated: (1) % Activity= 100/1+([I]/IC50)^h where h is the Hill coefficient, and [I] is the inhibitor concentration.

[2] = molecular target: NS3 helicase; details: read-out: IC50 for NS3 helicase inhibition, cited from earlier work
[3] = molecular target: T2, NS3 ATPase activity (Hepatitis C virus genotype 1b, UniProt P26662); test: ATPase assay ([γ-32P]ATP hydrolysis, thin-layer chromatography); type: biochemical; details: autoradiography, poly(U) RNA, 300 nM NS3, 0–100 µM tested
T2 construct: The full-length HCV NS3 protein, with serine protease and NTPase/helicase activities; made in house
Procedure: As the unwinding ability of NS3 helicase is dependent on ATP hydrolysis, the amount of inorganic phosphate (Pi) released from radioisotope-labeled ATP ([γ-^32P]ATP) was measured to determine the effects of hypericin on the ATPase activity of NS3 (Figure 3). The released ^32Pi was separated by thin-layer chromatography and visualized using autoradiography. The density of the upper spots corresponding to Pi, which represents ATPase activity, decreased dose-dependently, particularly in the concentration range of 1–5 µM hypericin. […] It is thus likely that hypericin inhibits NS3 helicase via the inhibition of ATPase activity.
NS3 ATPase activity was determined directly by monitoring [γ-^32P]ATP hydrolysis by thin-layer chromatography, as described previously. The reaction mixture contained 25 mM MOPS-NaOH (pH 7.0), 1 mM dithiothreitol, 5 mM MgCl2, 5 mM CaCl2, 1 mM [γ-^32P]ATP (Muromachi Yakuhin, Tokyo, Japan), 300 nM NS3, 0.1 μg/μL poly(U) ssRNA (Sigma-Aldrich), and increasing concentrations of hypericin in a total reaction volume of 10 μL. The reaction was conducted at 37 °C for 10 min, and stopped by the addition of 10 mM EDTA. […] The cellulose sheet was dried, and the released [γ-^32P]phosphoric acid was visualized using an Image Reader FLA-9000 (Fuji film, Tokyo, Japan).

[4] = molecular target: T3, NS3 RNA-binding activity (Hepatitis C virus genotype 1b, UniProt P26662); test: RNA-binding assay (gel mobility-shift); details: 32P-labeled ssRNA, 300 nM NS3, 0–100 µM tested
T3 construct: The full-length HCV NS3 protein, with serine protease and NTPase/helicase activities; made in house
Procedure: As RNA binding is required for NS3 helicase activity, the effect of hypericin on NS3 RNA-binding activity was examined by gel mobility-shift assay (Figure 4). As a control, the non-specific binding of ssRNA to bovine serum albumin (BSA) was assessed (lane 2). The density of the upper bands corresponding to the NS3–ssRNA complex, which represents NS3 RNA-binding activity, decreased dose-dependently in the presence of hypericin, particularly in the concentration range of 3–10 µM.
NS3 RNA-binding activity was determined by gel mobility-shift assay, as described previously. The ssRNA (5′-[…]-3′) synthesized by Gene Design (Osaka, Japan) was labeled at the 5′-end with [γ-^32P]ATP (Muromachi Yakuhin) using T4 polynucleotide kinase (Toyobo, Osaka, Japan) at 37 °C for 60 min, and purified using the phenol-chloroform extraction method. The reaction mixture contained 30 mM Tris-HCl (pH 7.5), 100 mM NaCl, 2 mM MgCl2, 1 mM dithiothreitol, 20 U RNasin Plus (Promega), 300 nM NS3, 0.5 nM ^32P-labeled ssRNA, and increasing concentrations of hypericin in a total reaction volume of 20 μL. The reaction was performed at room temperature for 15 min. […] The labeled RNA bands were visualized using an Image Reader FLA-9000 (Fujifilm, Tokyo, Japan).

[5] = tested on: Huh-7 cell line harboring the subgenomic replicon RNAs of HCV genotype 1b strain N; test: HCV replicon assay (luciferase); type: cell-based, Hepatitis C virus; details: for EC50: Hepatitis C virus, HCV subgenomic replicon, genotype 1b strain N, Huh-7, 72 h, mean ± SD of three replicates, read-out: EC50 (inhibition of HCV replication)
Procedure: The Huh-7 cell line harboring the subgenomic replicon RNAs of HCV genotype 1b strain N [51] was seeded at 2 × 10^4 cells per well in a 48-well plate and incubated at 37 °C for 24 h. The cells were treated with hypericin or sennidin A at various concentrations at 37 °C for 72 h, and then lysed in cell culture lysis reagent (Promega). A luciferase assay system (Promega) was used to determine the luciferase activity, and the luminescence was measured using a Luminescencer-JNR AB-2100 (ATTO, Tokyo, Japan), corresponding to the expression level of the HCV replicon. The anti-HCV activity of hypericin or sennidin A was calculated as the ratio of the intensity of the luminescence in the sample containing inhibitor to that in the control sample containing DMSO vehicle instead of inhibitor.

[6] = molecular target: T1, HCV NS3 helicase; test: Gel-based helicase assay; type: biochemical; details: compared with the fluorescence helicase assay, Figure S2
Procedure: A gel-based helicase assay was performed as described previously. The dsRNA substrate was prepared by annealing the 5′ Alexa Fluor 488-labeled fluorescence strand to the non-labeled complementary strand in a 1:2 molar ratio. The dsRNA substrate and the capture strand had the same nucleic acid sequences as those used in the FRET-based fluorescence helicase assay, and were purchased from Japan Bio Services. The reaction mixture for HCV NS3 helicase had the same components as those used in the FRET-based fluorescence helicase assay, with increasing concentrations of a test compound in a total reaction volume of 20 µL, except for the fact that the concentration of the capture strand was 100 nM. The reaction was started by the addition of HCV NS3 helicase and performed at 37 °C for 60 min using the GeneAmp PCR System 2700 (Applied Biosystems, Foster City, CA, USA). […] The helicase activity was calculated as the ratio of the signal intensity derived from ssRNA in the sample containing inhibitor to that in the control sample containing DMSO vehicle instead of inhibitor.

[7] = Cytotoxicity assay (MTS); type: cell-based; details: human, Huh-7 replicon cells, mean ± SD of three replicates, read-out: CC50 (reduction in cell viability)
Procedure: The Huh-7 cell line harboring the subgenomic replicon RNAs of HCV genotype 1b strain N [51] was seeded at 2 × 10^4 cells per well in a 48-well plate and incubated at 37 °C for 24 h. The cells were treated with hypericin or sennidin A at various concentrations at 37 °C for 72 h. The MTS assay was carried out to determine cytotoxicity using a CellTiter 96 aqueous one-solution cell proliferation assay kit (Promega) according to the manufacturer’s instructions. The cytotoxicity of hypericin or sennidin A was calculated as the ratio of the […] in the sample containing inhibitor to that in the control sample containing DMSO vehicle instead of inhibitor.

[8] = fluorescence helicase assay, dsRNA substrate, 240 nM NS3, 5 mM ATP, 37 °C, read-out: IC50 for NS3 helicase inhibition

T1 sequence (P26662 1027-1657): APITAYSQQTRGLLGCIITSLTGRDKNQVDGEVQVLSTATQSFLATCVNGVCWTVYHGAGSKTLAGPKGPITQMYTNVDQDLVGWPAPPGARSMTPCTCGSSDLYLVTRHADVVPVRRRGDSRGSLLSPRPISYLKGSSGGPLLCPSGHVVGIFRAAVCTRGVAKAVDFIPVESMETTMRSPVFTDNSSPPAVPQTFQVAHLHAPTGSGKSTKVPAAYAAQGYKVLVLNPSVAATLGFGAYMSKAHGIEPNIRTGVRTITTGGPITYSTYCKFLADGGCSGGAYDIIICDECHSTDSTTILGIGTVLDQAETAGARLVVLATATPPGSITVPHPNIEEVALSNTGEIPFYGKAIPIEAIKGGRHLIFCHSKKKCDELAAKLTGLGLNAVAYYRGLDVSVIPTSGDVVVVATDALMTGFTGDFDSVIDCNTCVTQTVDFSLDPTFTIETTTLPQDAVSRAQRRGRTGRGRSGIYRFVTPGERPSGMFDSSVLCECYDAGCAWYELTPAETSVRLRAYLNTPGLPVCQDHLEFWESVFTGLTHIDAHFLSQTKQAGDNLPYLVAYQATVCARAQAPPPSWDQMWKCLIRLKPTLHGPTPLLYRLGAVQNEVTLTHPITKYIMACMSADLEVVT
T3 sequence (P26662 1027-1657): as above
T2 sequence (P26662 1027-1657): as above

SMILES: O=C1c2ccccc2C(=O)c2c1cc(O)c(O)c2O [1,2,3-trihydroxyanthraquinone]
- IC50 [1, 8]: 18 µM

SMILES: O=C1c2ccccc2C(=O)c2c(O)c(O)cc(O)c21 [1,2,4-trihydroxyanthraquinone]
- IC50 [1]: 11 µM

SMILES: O=C1c2ccccc2C(=O)c2c1ccc(O)c2O [1,2-dihydroxyanthraquinone]
- IC50 [1]: > 200 µM

SMILES: O=C1c2ccc(O)c(O)c2C(=O)c2c(O)ccc(O)c21 [1,4,5,6-tetrahydroxyanthraquinone]
- IC50 [1, 8]: 98 µM

SMILES: O=C1c2c(O)ccc(O)c2C(=O)c2c(O)ccc(O)c21 [1,4,5,8-tetrahydroxyanthraquinone]
- IC50 [1, 8]: 6 µM

SMILES: O=C1c2ccccc2C(=O)c2c(O)ccc(O)c21 [1,4-dihydroxyanthraquinone]
- IC50 [1, 8]: 54 µM

SMILES: O=C1c2cccc(O)c2C(=O)c2cccc(O)c21 [1,5-dihydroxyanthraquinone]
- IC50 [1, 8]: > 200 µM

SMILES: O=C1c2cccc(O)c2C(=O)c2c(O)cccc21 [1,8-dihydroxyanthraquinone]
- IC50 [1, 8]: > 200 µM

SMILES: CC(C)CCC[C@@H](C)[C@H]1CC[C@H]2[C@@H]3CC=C4C[C@@H](OS(=O)(=O)O)CC[C@]4(C)[C@H]3CC[C@]12C [Cholesterol sulfate]
- IC50 ([2]; positive control of the gel-based helicase assay): 1.7 µM

SMILES: Cc1cc(O)c2c(=O)c3c(O)cc(O)c4c5c(O)cc(O)c6c(=O)c7c(O)cc(C)c8c1c2c(c34)c(c78)c65 [Hypericin, hypericin]
- Concentration range in which NS3 ATPase activity decreased dose-dependently [3]: 1 to 5 µM
- Concentration range in which NS3 RNA-binding activity decreased dose-dependently [4]: 3 to 10 µM
- SI, selectivity index (CC50/EC50) ([5]; CC50/EC50 in Huh-7 replicon cells): 11.7
- EC50 [5]: 3.5 ± 0.2 µM
- NS3 helicase inhibition in gel-based helicase assay [6]: quite similar to that in the fluorescence helicase assay
- IC50 [1]: 3 µM
- CC50 at 72 h [7]: 41.1 ± 9.5 µM

SMILES: O=C(O)c1cc(O)c2c(c1)[C@H]([C@@H]1c3cccc(O)c3C(=O)c3c(O)cc(C(=O)O)cc31)c1cccc(O)c1C2=O [Sennidin A, sennidin A]
- EC50 [5]: > 80 µM
- NS3 helicase inhibition in gel-based helicase assay [6]: quite similar to that in the fluorescence helicase assay
- IC50 [1, 8]: 0.8 µM
- CC50 at 72 h [7]: > 80 µM

SMILES: O=C1c2c(O)ccc(O)c2C(=O)c2c(NCCNCCO)ccc(NCCNCCO)c21 [mitoxantrone]
- IC50 [2]: 6.7 µM
